Assay results: paper PMC4347883, “Evaluation of a Triple-Helical Peptide with Quenched Fluorophores for Optical Imaging of MMP-2 and MMP-9 Proteolytic Activity” (Molecules, 2014)
Entries after “also recorded” stand apart in the source; their conditions may differ.

How the values were obtained:
[1] = system: gelatinase positive HT-1080 human fibrosarcoma cells; assay: Confocal fluorescence microscopy of 5FAM6-THP hydrolysis in HT-1080 cells; type: cell-based; details: SB-3CT 1 µM pre-incubated 30 min, then 5FAM6-THP 1 µM, 1 h, mean of n = 10 cells
Description: Two image fields are shown per condition.

[2] = system: MMP-2; assay: MMP-2 inhibition by SB-3CT; type: biochemical; details: at SB-3CT 72-fold Ki (1 µM)
[3] = target: T1, human-MMP-2 (Homo sapiens, UniProt P08253); details: fTHP comparison; cited from earlier work
T1 construct: purchased Enzo Life Sciences
T1 sequence (P08253 110-660): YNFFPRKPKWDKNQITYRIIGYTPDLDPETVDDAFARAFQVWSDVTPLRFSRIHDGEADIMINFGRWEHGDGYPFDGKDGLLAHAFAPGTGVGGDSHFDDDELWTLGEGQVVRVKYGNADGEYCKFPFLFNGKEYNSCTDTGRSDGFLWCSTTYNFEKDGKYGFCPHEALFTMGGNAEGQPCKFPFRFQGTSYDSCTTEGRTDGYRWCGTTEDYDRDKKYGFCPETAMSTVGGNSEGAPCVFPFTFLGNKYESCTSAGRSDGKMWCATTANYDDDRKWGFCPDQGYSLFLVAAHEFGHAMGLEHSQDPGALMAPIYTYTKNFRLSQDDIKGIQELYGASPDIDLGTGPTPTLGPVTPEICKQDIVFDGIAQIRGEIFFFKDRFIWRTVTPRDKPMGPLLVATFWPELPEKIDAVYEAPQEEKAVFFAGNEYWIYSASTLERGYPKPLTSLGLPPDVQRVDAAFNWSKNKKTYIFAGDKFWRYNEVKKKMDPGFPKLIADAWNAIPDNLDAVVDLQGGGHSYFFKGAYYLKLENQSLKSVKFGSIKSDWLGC
Description: (§1) Table 1 Enzyme kinetic parameters for gelatinase mediated hydrolysis of 5FAM-THPs. | column: KM (μM); kcat (s^−1); kcat/KM (M^−1 s^−1)

[4] = target: T2, human-MMP-9 (Homo sapiens, UniProt P14780); details: fTHP comparison; cited from earlier work
T2 construct: purchased Enzo Life Sciences
T2 sequence (P14780 107-707 limits assumed): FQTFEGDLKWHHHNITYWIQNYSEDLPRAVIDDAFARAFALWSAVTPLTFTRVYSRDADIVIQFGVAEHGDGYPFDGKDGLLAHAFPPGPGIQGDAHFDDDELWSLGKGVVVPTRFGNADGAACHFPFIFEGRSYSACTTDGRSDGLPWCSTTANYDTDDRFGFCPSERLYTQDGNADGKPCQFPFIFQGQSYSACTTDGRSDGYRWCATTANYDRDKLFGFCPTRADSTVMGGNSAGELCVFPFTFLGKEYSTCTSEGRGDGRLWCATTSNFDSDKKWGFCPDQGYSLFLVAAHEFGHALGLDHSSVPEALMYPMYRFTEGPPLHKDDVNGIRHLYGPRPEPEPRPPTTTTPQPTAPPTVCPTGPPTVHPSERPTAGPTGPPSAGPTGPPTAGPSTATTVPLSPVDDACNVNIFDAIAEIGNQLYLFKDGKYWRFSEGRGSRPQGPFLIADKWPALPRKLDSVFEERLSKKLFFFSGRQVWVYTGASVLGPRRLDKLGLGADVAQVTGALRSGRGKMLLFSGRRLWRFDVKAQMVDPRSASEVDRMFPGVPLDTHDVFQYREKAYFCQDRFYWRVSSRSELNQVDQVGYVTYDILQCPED
Description: as §1

[5] = system: MMP-7; details: cited from earlier work

Compound: O=S(=O)(CC1CS1)c1ccc(Oc2ccccc2)cc1 (stereo not shown) [SB-3CT]
- reduction of 5FAM6-THP fluorescence by gelatinase inhibitor [1]: greatly attenuated; also recorded: greatly reduced fluorescence levels when 5FAM6-THP was incubated with HT-1080 cells by three-fold; also recorded: low levels of fluorescence observed in SB-3CT treated HT-1080 cells
- occupancy of MMP-2 at equilibrium [2]: approximately 99%

Compound: (GPhP)5GPK(Mca)GPPG~VVGEK(Dnp)GEN(GPhP)5-NH2 [fTHP, fluorogenic THP substrate with 7-methoxycoumarin and 2,4-dinitrophenyl groups conjugated to the ε-amino groups of Lys]
- Km [3]: 4.4 µM
- kcat [3]: 0.061 s⁻¹
- kcat/KM [3]: 14,002 M^−1 s^−1
- Km [4]: 8.1 µM
- kcat [4]: 0.044 s⁻¹
- kcat/KM [4]: 5,400 M^−1 s^−1

Compound: GVPLSLTMGC [MMP-7 substrate bearing a heterologous donor and acceptor pair of near infrared dyes on the N- and C- termini]
- increase in fluorescence after digestion with MMP-7 ([5]; after digestion with MMP-7): ~7 fold
- level of quenching ([5]; near infrared donor/acceptor dye pair on N- and C-termini): 85%
